In article PMC3527569, “Anti-Inflammatory and Vasoprotective Activity of a Retroviral-Derived Peptide, Homologous to Human Endogenous Retroviruses: Endothelial Cell Effects” (PLoS ONE, 2012):
Where a SMILES comes first, the peptide text is derived from it. Bridges are numbered along the chain shown (N, C = ends). Roman numbers before positions name the chains, in order.

Experiments:
LTB4 = assay: Zymosan-induced LTB4 release by adherent human PBMC; format: cell-based; conditions: 1 h peptide then Zymosan 90 min, IC50 estimated from graph
Protocol: Platelet Activating Factor (PAF) and Leukotriene B4 (LTB4) Assays: PBMC were prepared as described above and adjusted to 3.3 x 10^6 cells/ml in RPMI-1640 medium containing 5 mg/ml HSA (Sigma, St. Louis, MO). To each well of a 48-well tissue culture plate was added 0.3 ml of cell suspension. The plate was incubated for 2 h at 37°C and 5% CO2 to allow cells to adhere. The wells were then washed 3X with HHBSS (Hank’s Balanced Salt Solution with 5 mg/ml HSA) at room temperature (RT). One-hundred seventy-five µL of HHBSS or test material in HHBSS was then added to each well and the plates incubated for 1 h at 37°C and 5% CO2. Samples were set up in quadruplicate. To each of duplicate wells for each sample was then added 175 µL of HHBSS or HHBSS containing 600 µg/ml of Zymosan (Sigma, St. Louis, MO). The plates were then incubated for 90 min at 37°C and 5% CO2. The plates were centrifuged and supernatants removed for quantitation of PAF or LTB4 according to the kit manufacturer’s (Amersham Pharmacia; Piscataway, NJ) instructions. The released PAF or LTB4 concentration was determined from a standard curve using standards provided with each kit.

TF = assay: Monocyte-associated tissue factor (TF) ELISA; format: cell-based; conditions: human PBMC cultured 18-24 h with LPS; cell lysate, IMMUBIND Tissue Factor ELISA; IC50 estimated from graph
Protocol: Tissue Factor (TF): Monocyte-associated TF was quantitated in the following manner. PBMC were cultured in 48-well tissue culture plates as described below for PAF and LTB4 assays. At the end of the culture period (18-24 h) the supernatants were removed and stored frozen for cytokine assays. The wells of the plates were washed once with PBS and to each well was added 100 µL of Triton X-100 (10% [v/v] in H2O; Sigma, St. Louis, MO). The plates were placed on an orbital shaker for 12-18 h at 4°C and a speed of ~ 125 rpm. To each well was added 900 µL of sample buffer (10 mM PBS, pH 7.4, with 1% [w/v] BSA). The contents of each well were mixed well and removed for quantitation of TF using an IMMUBIND® Tissue Factor ELISA kit (American Diagnostica; Stamford, CT) according to the manufacturer’s instructions. Samples were diluted 1:10 in sample buffer prior to being assayed.

HUVEC [1] = assay: Staurosporine-induced apoptosis in HUVEC (Cell Death Detection ELISA); format: cell-based, human; conditions: for protection against staurosporine-induced apoptosis: 50 µM peptide 3 h before staurosporine (500 nM), measured 18 h after staurosporine (Figure 11B)
Protocol: Apoptosis was measured in HUVEC using the Cell Death Detection ELISA^PLUS kit (Roche Diagnostics; Indianapolis, IN) according to the manufacturer's instructions. This assay is based on a quantitative sandwich-enzyme-immunoassay using mouse monoclonal antibodies directed against both DNA and histones, respectively. It allows the specific determination of mono- and oligonucleosomes in the cytoplasmic fraction of cell lysates (apoptosis) and in the supernatant of dying cells (necrosis). The apoptotic index (AI) was calculated as
where treatment refers to use of a known apoptosis- or necrosis-inducing agent (staurosporine, TNF-α).

Chemotaxis = assay: Monocyte and neutrophil chemotaxis to FMLP (micro-chemotaxis chamber); format: cell-based, human; conditions: cells pre-incubated 60 min at 37°C with peptide (10 nM-100 µM), FMLP 10^-8 or 10^-9 M, 90 min, triplicate
Protocol: Monocyte and Neutrophil Chemotaxis: For monocyte chemotaxis, PBMC were prepared as described above but washed and resuspended to 2 x 10^6/ml in HBSS (10 mM HEPES, 0.5% BSA [low-endotoxin; Sigma, St. Louis, MO], pH 7.0). The percentage of monocytes in the cell preparation was determined by myeloperoxidase staining of fixed, cytospin-prepared slides and usually ranged between 15-25%. For neutrophil chemotaxis, neutrophils were prepared as described above and routinely contained 97-99% neutrophils. Effects of test materials on chemotaxis were measured using 48-well micro-chemotaxis chambers (Neuro-Probe; Cabin John, MD). Briefly, to 450 µL of cell suspension in a polypropylene centrifuge tube was added 50 µL of buffer or test material. Each sample was tested in triplicate. The tubes were then incubated for 60 min at 37°C in a shaking water bath. […] The stained filters were mounted on slides and the number of cells migrating though the filters determined under 600X magnification for 5 fields/well. Inhibition of chemotaxis was determined using that slide for which the positive control (untreated cells; either 10^-8 or 10^-9 M FMLP) gave the strongest response and was calculated in the following manner: […]

HUVEC [2] = assay: [125I]-MN20054 binding/uptake by HUVEC; parameters: species or system human; conditions: 100-fold excess unlabeled peptide, 60 min; for inhibition of association of [125I]-MN20054 with HUVEC: 37°C, triplicate wells (Figure 6C)
Protocol: For binding/uptake studies on endothelial cell, HUVEC were grown to confluence in 12-well tissue culture plates. Forty pmol of [^125I]-MN20054 (∼20 Ci/mmol) in PBS with 0.5% BSA, pH 7.5, was added in a volume of 1.0 ml in the presence or absence of a 100-fold excess of the indicated competitor. The plates were allowed to incubate for 1 h at 37°C on a rocking platform and the wells were aspirated and washed 3X with 2.0 ml of ice-cold PBS/BSA. One ml of 1.0 N NaOH was added to each well for 30 min at RT to solubilize the cells and then 0.9 ml was removed from each well and counted in a gamma scintillation spectrophotometer.

paw inflammation = assay: Carrageenan-induced paw inflammation in mice; format: in vivo, mouse; conditions: compared with peritonitis model; data not shown
dermal vascular leak = assay: Reverse passive Arthus reaction, dermal vascular leak; format: in vivo, guinea pig (Hartley)
Protocol: Eighteen hours later both flanks of the animals were shaved and 6.25 or 12.5 µl of rabbit anti-BSA antiserum was injected intradermally (i.d.) at two sites, one on each flank. The animals were then injected i.v. with 1 ml of PBS containing BSA (1 mg/ml) and Evans Blue dye (2 mg/ml; Sigma; St. Louis, MO). Six hours later the animals were euthanized, the skin removed, and the level of induration determined as the diameter (mm) of the extravasation for each site measured on the ventral surface of the skin.

Row | Molecule | IC50 (LTB4) | IC50 (TF) | protection against staurosporine-induced apoptosis (HUVEC [1]) | IC50 (Chemotaxis) | inhibition of association of [125I]-MN20054 with HUVEC (HUVEC [2]) | activity in carrageenan-induced paw inflammation (paw inflammation) | block of vascular leak, challenge 6.25 µl anti-BSA (dermal vascular leak; 250 or 500 µg s.c. 18 h before challenge, Evans Blue extravasation diameter at 6 h) | block of vascular leak, challenge 12.5 µl anti-BSA (dermal vascular leak; only the highest dose (500 µg) s.c. 18 h before challenge, Evans Blue extravasation at 6 h) | effect of L-NAME pretreatment on protective effect against staurosporine-induced apoptosis (HUVEC [1]; 2 mM L-NAME 5 h, then 50 µM peptide 3 h, staurosporine 500 nM ON (Figure 12)) | maximal protection against staurosporine-induced apoptosis (HUVEC [1]; peptide added 3 h before staurosporine, up to 50 µM peptide, quadruplicate wells (Figure 10A, 10C)) | inhibition of binding/uptake of [125I]-MN20054 by HUVEC (HUVEC [2]; 37°C (Figure 7))
1 | H-LGGEKLFLLDGRNQLC-OH (disulfide (positions not given here)) [MN20050] | > 100 µM | > 100 µM | no protective effective | > 100 µM | no significant inhibition | – | – | – | – | – | –
2 | CC(C)C[C@H](NC(=O)CNC(=O)CNC(=O)[C@H](CCC(=O)O)NC(=O)[C@H](CCCCN)NC(=O)[C@H](CC(C)C)NC(=O)[C@H](Cc1ccccc1)NC(=O)[C@H](CC(C)C)NC(=O)[C@H](CC(C)C)NC(=O)[C@H](CC(=O)O)NC(=O)[C@H](CC(C)C)NC(=O)CNC(=O)[C@H](CCCNC(=N)N)NC(=O)[C@H](CCCNC(=N)N)NC(=O)[C@H](CC(N)=O)NC(=O)[C@H](CCC(N)=O)NC(=O)[C@@H](N)CC(C)C)C(=O)N[C@@H](CSSC[C@H](NC(=O)[C@H](CC(C)C)NC(=O)CNC(=O)CNC(=O)[C@H](CCC(=O)O)NC(=O)[C@H](CCCCN)NC(=O)[C@H](CC(C)C)NC(=O)[C@H](Cc1ccccc1)NC(=O)[C@H](CC(C)C)NC(=O)[C@H](CC(C)C)NC(=O)[C@H](CC(=O)O)NC(=O)[C@H](CC(C)C)NC(=O)CNC(=O)[C@H](CCCNC(=N)N)NC(=O)[C@H](CCCNC(=N)N)NC(=O)[C@H](CC(N)=O)NC(=O)[C@H](CCC(N)=O)NC(=O)[C@@H](N)CC(C)C)C(=O)O)C(=O)O [MN10021] (I: H-LQNRRGLDLLFLKEGGLC-OH / II: H-LQNRRGLDLLFLKEGGLC-OH; disulfide I:18-II:18) | 6.2 µM | 12.5 µM | significant protection | 0.25 µM | 77% | equally active | completely blocked | completely blocked | no effect | ~60% | ~75%
